How the values were obtained:
ADRB2 = ADRB2 (Homo sapiens, UniProt P07550); test: PathHunter β-arrestin assay, antagonist mode; format: cell-based
Protocol: (§1) The assay was performed by DiscoverX Corporation (Fremont, CA) using PathHunter β -arrestin enzyme fragment complementation (EFC) technology, in a similar way to that described elsewhere [35, 36]. The PathHunter cell lines were taken from freezer stocks according to standard procedures. A total of 20 µL of cells were seeded into white 384-well plates and incubated at 37 °C for the appropriate time prior to testing.
(§2) The assays were performed at 10-point concentrations using three-fold serial dilutions in duplicate. For all the assay formats, the final assay vehicle concentration was 1%.

proteasome = tested on: proteasome; set-up: method as in PMID 20451377; conditions: read-out: proteasome inhibitory activity IC50; cited from earlier work
CXCR7 = CXCR7 (Homo sapiens, UniProt P25106); test: PathHunter β-arrestin assay, agonist mode; format: cell-based
Protocol: For agonist determination, aaptamine was incubated with PathHunter cell lines to induce a response. To increase the concentration, intermediate dilution from 20 µM of aaptamine was performed to generate a 5X sample in an assay buffer. Then, 5 µL of 5X sample was added to the plate with PathHunter cells and incubated for 90 or 180 min at 37 °C or room temperature. The percentage activity of aaptamine was calculated following this formula: % activity = 100% × (mean RLU of test sample − mean RLU of vehicle control)/(mean MAX control ligand − mean RLU of vehicle control).
as §2

HeLa cells = tested on: HeLa cells; set-up: method as in PMID 20451377; conditions: read-out: cytotoxicity against HeLa cells IC50; cited from earlier work
DRD4 = target: T1, DRD4 (Homo sapiens, UniProt P21917); test: PathHunter β-arrestin assay, antagonist mode; format: cell-based
T1 sequence (P21917 1-419): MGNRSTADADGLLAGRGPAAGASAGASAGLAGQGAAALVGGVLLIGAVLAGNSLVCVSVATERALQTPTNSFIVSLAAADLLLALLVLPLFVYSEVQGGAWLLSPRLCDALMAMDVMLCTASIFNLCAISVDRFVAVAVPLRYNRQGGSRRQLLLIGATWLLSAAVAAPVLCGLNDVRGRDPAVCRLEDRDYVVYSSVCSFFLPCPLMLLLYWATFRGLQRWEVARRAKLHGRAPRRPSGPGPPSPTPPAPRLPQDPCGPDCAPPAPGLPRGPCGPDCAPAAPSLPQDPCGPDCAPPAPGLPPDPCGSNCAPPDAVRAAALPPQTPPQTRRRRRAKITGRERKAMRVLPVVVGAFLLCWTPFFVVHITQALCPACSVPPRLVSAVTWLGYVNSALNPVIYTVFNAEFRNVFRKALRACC
Protocol: as §1, §2

ADRA2C = ADRA2C (Homo sapiens, UniProt P18825); test: PathHunter β-arrestin assay, antagonist mode; format: cell-based
ADRA2C, sequence (P18825 whole entry): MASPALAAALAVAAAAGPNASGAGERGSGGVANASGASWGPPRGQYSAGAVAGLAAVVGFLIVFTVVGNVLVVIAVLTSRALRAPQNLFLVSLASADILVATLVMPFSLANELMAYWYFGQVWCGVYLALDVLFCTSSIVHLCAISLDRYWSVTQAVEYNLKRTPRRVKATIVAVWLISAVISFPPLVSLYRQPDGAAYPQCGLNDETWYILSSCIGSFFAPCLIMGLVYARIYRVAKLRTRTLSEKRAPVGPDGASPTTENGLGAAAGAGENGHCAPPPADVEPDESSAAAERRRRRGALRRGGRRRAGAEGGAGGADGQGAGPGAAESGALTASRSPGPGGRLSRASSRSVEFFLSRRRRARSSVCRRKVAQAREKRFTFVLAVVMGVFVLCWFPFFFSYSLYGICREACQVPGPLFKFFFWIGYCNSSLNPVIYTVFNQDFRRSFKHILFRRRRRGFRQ
Protocol: as §1, §2

DRD2L = DRD2L (Homo sapiens, UniProt P14416); test: PathHunter β-arrestin assay, antagonist mode; format: cell-based
DRD2L, sequence (P14416 whole entry): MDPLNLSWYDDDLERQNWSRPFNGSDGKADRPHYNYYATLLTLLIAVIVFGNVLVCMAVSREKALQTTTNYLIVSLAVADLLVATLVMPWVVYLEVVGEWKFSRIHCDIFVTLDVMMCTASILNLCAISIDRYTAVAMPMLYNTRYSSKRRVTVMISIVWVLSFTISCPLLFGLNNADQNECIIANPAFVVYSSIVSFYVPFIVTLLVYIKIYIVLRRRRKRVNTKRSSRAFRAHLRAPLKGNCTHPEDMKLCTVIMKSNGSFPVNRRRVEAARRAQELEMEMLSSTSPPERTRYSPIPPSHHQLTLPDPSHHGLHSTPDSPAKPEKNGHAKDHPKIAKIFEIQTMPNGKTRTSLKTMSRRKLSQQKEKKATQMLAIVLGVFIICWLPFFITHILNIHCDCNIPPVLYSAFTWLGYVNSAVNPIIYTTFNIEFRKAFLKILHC
Protocol: as §1, §2

p21 = tested on: p21; set-up: method as in doi:10.1016/j.tetlet.2007.01.113; conditions: cited from earlier work
[1] = target: mu opioid receptor (μ-OR); set-up: method as in PMID 27744679; conditions: read-out: EC50 agonist, mu opioid receptor; cited from earlier work
[2] = target: T2, purified 20S proteasome from human erythrocytes (Homo sapiens, UniProt P28074); test: 20S proteasome chymotrypsin-like activity assay (Suc-LLVY-AMC); format: biochemical
T2 construct: purified 20S proteasome from human erythrocyte; purchased Enzo Life Sciences; host or cells: human erythrocytes (tissue-purified)
Protocol: Aaptamine was tested against HCT116 colon cancer cells and cell viability was assessed after 48 h using an MTT (3-(4,5-dimethyl dimethylthiazol-2-yl)-2,5-diphenyltetrazolium bromide) assay. […] The results agreed with the findings of Kobayashi et al. that aaptamine at concentrations of 20–50 µM increased the expression of the cyclin-dependent kinase inhibitor p21, a protein known to act as a negative regulator of cell cycle progression, thus preventing cell proliferation. […] To alternatively explain the activity of aaptamine, we tested the compound for its ability to inhibit the chymotrypsin-like activity of a purified 20S proteasome from human erythrocytes. Proteasome inhibitors are validated anticancer agents. Aaptamine was able to inhibit the enzyme activity by 41% at 50 µM (Figure 2b). […] In our study, aaptamine had similar IC50 values for cancer cell growth inhibition and proteasome inhibition in vitro (~50 µM).
The 20S proteasome assay kit from Enzo Life Sciences (NY, USA) is a fluorogenic, non-radioactive assay designed to measure the chymotrypsin-like protease activity of purified 20S proteasome from human erythrocyte. […] The fluorescence was then measured at an excitation of 360 nm and emission of 460 nm using a SpectraMax M5 plate reader (Molecular Device). The data were recorded every 2 min for 20 min. […]

DRD2S = DRD2S (Homo sapiens, UniProt P14416); test: PathHunter β-arrestin assay, antagonist mode; format: cell-based
DRD2S, sequence (P14416 1-414 isoform P14416-2): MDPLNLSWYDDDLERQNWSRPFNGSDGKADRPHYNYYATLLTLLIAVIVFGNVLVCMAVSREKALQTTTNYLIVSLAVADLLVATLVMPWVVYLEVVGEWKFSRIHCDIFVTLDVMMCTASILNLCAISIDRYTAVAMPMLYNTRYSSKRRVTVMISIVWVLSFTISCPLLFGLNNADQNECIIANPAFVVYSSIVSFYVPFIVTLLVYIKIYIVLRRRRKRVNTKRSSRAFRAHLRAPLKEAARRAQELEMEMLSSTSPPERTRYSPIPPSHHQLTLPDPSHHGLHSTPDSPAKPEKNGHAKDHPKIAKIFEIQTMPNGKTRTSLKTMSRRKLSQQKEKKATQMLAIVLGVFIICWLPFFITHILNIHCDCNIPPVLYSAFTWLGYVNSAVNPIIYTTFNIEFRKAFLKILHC
Protocol: Aaptamine (20 µM) was profiled in gpcrMAX panel biosensor assays (in agonist and antagonist modes) against a panel of 168 GPCRs. The assay was performed by DiscoverX Corporation (Fremont, CA) using PathHunter β -arrestin enzyme fragment complementation (EFC) technology, in a similar way to that described elsewhere. The PathHunter cell lines were taken from freezer stocks according to standard procedures. A total of 20 µL of cells were seeded into white 384-well plates and incubated at 37 °C for the appropriate time prior to testing.
For antagonist determination, PathHunter cells were preincubated with aaptamine followed by the addition of an agonist. In this assay format, the standard agonist was added at an EC80 concentration. To the plate that contained the cells, 5 µL of the 5X sample was added and incubated for 30 min at 37 °C or room temperature. After the incubation period, 5 µL of the 6X EC80 agonist in an assay buffer was added to the cells and incubated for additional 90 or 180 min at 37 °C or room temperature.
Hit validation was performed by subjecting the aaptamine to an agonist, antagonist, and positive allosteric modulation (PAM) secondary screen utilizing thirteen GPCR biosensor assays (Arrestin) against the following targets: ADRA2A, ADRA2C, ADRB2, CCR1, CCR3, CXCR3, CXCR7, DRD2L, DRD2S, DRD4, HTR1E, OPRK1, and SSTR1. […]

ADRA2A = ADRA2A (Homo sapiens, UniProt P08913); test: PathHunter β-arrestin assay, antagonist mode; format: cell-based
ADRA2A, sequence (P08913 whole entry): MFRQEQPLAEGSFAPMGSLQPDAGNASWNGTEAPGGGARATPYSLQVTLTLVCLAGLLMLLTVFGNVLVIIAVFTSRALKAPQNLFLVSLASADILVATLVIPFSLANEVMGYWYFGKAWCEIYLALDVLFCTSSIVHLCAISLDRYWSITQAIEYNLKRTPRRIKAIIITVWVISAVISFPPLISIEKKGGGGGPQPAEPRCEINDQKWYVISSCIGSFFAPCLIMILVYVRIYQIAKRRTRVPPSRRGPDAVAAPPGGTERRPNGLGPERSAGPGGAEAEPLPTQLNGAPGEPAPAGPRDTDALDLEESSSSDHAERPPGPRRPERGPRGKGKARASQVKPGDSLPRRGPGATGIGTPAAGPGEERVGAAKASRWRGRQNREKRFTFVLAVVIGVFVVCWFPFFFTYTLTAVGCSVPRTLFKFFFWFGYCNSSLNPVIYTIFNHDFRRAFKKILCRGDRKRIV
Protocol: as §1, §2

[3] = dose-response analysis, read-out: Dose-Response Maximal Response, % Inhibition

CXCR7, sequence (P25106 whole entry): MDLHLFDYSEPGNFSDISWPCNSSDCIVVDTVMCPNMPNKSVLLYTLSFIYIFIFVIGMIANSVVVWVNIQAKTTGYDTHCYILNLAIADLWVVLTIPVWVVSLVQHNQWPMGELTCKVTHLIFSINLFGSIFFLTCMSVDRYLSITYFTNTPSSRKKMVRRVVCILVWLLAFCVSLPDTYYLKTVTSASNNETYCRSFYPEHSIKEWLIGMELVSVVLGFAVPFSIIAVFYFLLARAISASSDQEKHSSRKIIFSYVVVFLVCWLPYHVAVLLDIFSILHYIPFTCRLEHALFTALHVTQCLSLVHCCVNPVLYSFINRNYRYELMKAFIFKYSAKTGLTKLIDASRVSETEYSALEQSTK
ADRB2, sequence (P07550 whole entry): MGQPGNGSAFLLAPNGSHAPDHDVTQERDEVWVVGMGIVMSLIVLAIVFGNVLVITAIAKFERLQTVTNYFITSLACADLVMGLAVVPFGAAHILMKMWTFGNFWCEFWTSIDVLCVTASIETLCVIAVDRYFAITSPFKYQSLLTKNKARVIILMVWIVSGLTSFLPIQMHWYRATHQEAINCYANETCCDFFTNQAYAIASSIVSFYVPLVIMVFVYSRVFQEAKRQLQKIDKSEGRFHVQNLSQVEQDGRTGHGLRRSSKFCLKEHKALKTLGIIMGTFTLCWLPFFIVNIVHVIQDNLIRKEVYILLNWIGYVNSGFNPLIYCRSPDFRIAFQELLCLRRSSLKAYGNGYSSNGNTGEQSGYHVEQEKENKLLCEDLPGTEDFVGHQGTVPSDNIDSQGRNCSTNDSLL

**Q.** With `COc1cc2ccnc3c2c(c1OC)NC=C3` [aaptamine] as the compound, how does the Emax (ADRB2; [3]) read?
**A.** Its Emax is 96.5%.

**Q.** What about the IC50 (ADRB2; dose-response, antagonist mode) of the same compound?
**A.** Its IC50 is 0.2 µM.

**Q.** And the “selectivity for ADRB2 over ADRA2C” value (ADRB2; from IC50 values)?
**A.** Its value is > 50 fold.

**Q.** What about the IC50 (proteasome) of the same compound?
**A.** The IC50 was 19 µM.

**Q.** What about the “Dose-Response Maximal Response, % Activation” value (CXCR7; dose-response analysis) of the same compound?
**A.** Its value is 122.57%.

**Q.** And the Emax (CXCR7; dose-response analysis, read-out: Dose-Response Maximal Response, % Activation)?
**A.** The Emax was 123%.

**Q.** What about the EC50 (CXCR7; dose-response, agonist mode) of the same compound?
**A.** The EC50 was 6.2 µM.

**Q.** And the IC50 (HeLa cells)?
**A.** Its IC50 is 66 µM.

**Q.** And the Emax (DRD4; [3])?
**A.** Its Emax is 94.5%.

**Q.** What about the IC50 (DRD4; dose-response, antagonist mode) of the same compound?
**A.** The IC50 was 6.9 µM.

**Q.** What about the “selectivity for DRD4 among the dopamine receptors” value (DRD4; versus DRD2S and DRD2L, from IC50 values) of the same compound?
**A.** Its value is 3.7- to 5.6 fold.

**Q.** What about the Emax (ADRA2C; [3]) of the same compound?
**A.** Its Emax is 104%.

**Q.** What about the IC50 (ADRA2C; dose-response, antagonist mode) of the same compound?
**A.** The IC50 was 11.9 µM.

**Q.** What about the Emax (DRD2L; [3]) of the same compound?
**A.** The Emax was 73.7%.

**Q.** And the IC50 (DRD2L; dose-response, antagonist mode)?
**A.** The IC50 was 38.7 µM.

**Q.** And the “concentrations that increased the expression of p21” value (p21)?
**A.** Its value is 20 to 50 µM.

**Q.** And the EC50 [1]?
**A.** Its EC50 is 10.1 µM.

**Q.** And the inhibition at 50 µM ([2]; 50 µM, 10 min preincubation, read-out: inhibition of enzyme activity (chymotrypsin-like))?
**A.** The inhibition at 50 µM was 41%.

**Q.** And the IC50 ([2]; read-out: IC50 proteasome inhibition in vitro)?
**A.** The IC50 was ~50 µM.

**Q.** And the Emax (DRD2S; [3])?
**A.** The Emax was 74.4%.

**Q.** What about the IC50 (DRD2S; dose-response, antagonist mode) of the same compound?
**A.** Its IC50 is 25.7 µM.

**Q.** What about the Emax (ADRA2A; [3]) of the same compound?
**A.** The Emax was 63.4%.

**Q.** And the IC50 (ADRA2A; dose-response, antagonist mode)?
**A.** The IC50 was 56.1 µM.
